The values below are quoted from earlier work in patent US8680301B2, “Lipase activity inhibitors containing high-molecular weight polyphenol fractions, tea extracts, and processes for producing the same” (Suntory Holdings Limited, priority 2004, dated 2014).

For the data set the following is noted: clinical reports.

The structures appear in SMILES notation.

Regarding `CCCCCCCCCCC[C@@H](C[C@@H]1OC(=O)[C@H]1CCCCCC)OC(=O)[C@H](CC(C)C)NC=O` [Xenical®], the Reported side effects result is “side effects such as fatty stool, increased stool frequency, soft stool, diarrhea and stomachache”. Turning to `OC1(c2ccc(Cl)cc2)c2ccccc2C2=NCCN21` (centres unmarked) [Mazindole®], the Reported side effects entry was “side effects such as excessive thirst (mouth dryness), constipation, epigastric distress, nausea and vomiting”.
